# Assay results from patent US20100119599A1 (ARCHER PHARMACEUTICALS, INC., priority 2006, published 2010).
# How the values were obtained:
# [1] = tested on: Aβ1-40; assay: Measurement of Aβ1-40 in culture medium of 7W WT APP751 CHO cells by ELISA; format: cell-based, Chinese hamster; conditions: CHO cells that overexpress APP751; zero = below the detection limit of the assay
# Protocol: (§1) Chinese hamster ovary (CHO) cells, stably transfected with human APP751 (7W WT APP751 CHO cells) were used. See, e.g., Koo and Squazzo, J. Biol. Chem., 269(26): 17386-17389, 1994. The cells were maintained in DMEM medium supplemented with 10% fetal bovine serum and 1× mixture of penicillin/streptomycin/fungizone/glutamine mixture (Cambrex, Md.) geneticin as selecting agent in 75 cm^2 cell culture flasks. The 7W WT APP751 CHO cells were plated in 96-well cell culture plates in quadruplicate, containing 200 microliters of culture medium, for 18 hours at 37° C. and 5% CO2. All test compounds were placed in dimethyl sulfoxide (DMSO) before being added to the cultured confluent 7W WT APP751 CHO cells to a concentration of the test compound of 5 μM. The culture medium was collected and diluted before being assayed by ELISAs for Aβ1-40 at 10-fold dilution and Aβ1-42 at 2-fold dilution, respectively. Concentrations of Aβ1-40 and Aβ1-42, expressed in pg/ml, were determined using commercially available ELISAs (Biosource, Calif.) in a colorimetric assay using labeled antibodies detected spectrophotometrically. For compounds with an identification beginning “RI”, the compounds were tested at a concentration of 10 μM for 24 hours. Control cells were treated with DMSO containing no compound. The percentage reduction in levels of Aβ1-40 and Aβ1-42 as compared to control cells not exposed to the test compounds are reported for the compounds in Tables 1, 2, and 3, supra. An entry of “0” indicates no detectable amount of Aβ1-40 or Aβ1-42 according to the assay conditions. The data in Tables 1, 2, and 3 may be rounded to the nearest 0.1%.
# [2] = tested on: Aβ1-42; assay: Measurement of Aβ1-42 in culture medium of 7W WT APP751 CHO cells by ELISA; format: cell-based, Chinese hamster; conditions: CHO cells that overexpress APP751; zero = below the detection limit of the assay
# Protocol: as §1
# 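Further: 5 µM test compound but RI-coded compounds at 10 µM for 24 hours.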
Structure (SMILES),Aβ1-40 (% of control) [1],Aβ1-42 (% of control) [2]
CC1=C(C(=O)Nc2ccc(Cl)cc2)C(c2ccccc2)c2c(sc(C(=O)Nc3cccc(C)c3)c2N)N1 (stereo not shown) [RI_43],61.2 % of control,75.1 % of control
CCc1cccc(NC(=O)CSC2=C(C#N)C(c3ccsc3)C(C(=O)Nc3ccccc3)=C(C)N2)c1 (stereo not shown) [RI_44],93.1 % of control,60.1 % of control
CCc1cccc(NC(=O)CSC2=C(C#N)C(c3cccs3)C(C(=O)Nc3ccccc3)=C(C)N2)c1 (stereo not shown) [RI_45],82.7 % of control,61.3 % of control
CC1=C(C(=O)Nc2ccccc2)C(c2ccsc2)C(C#N)=C(SCC(=O)Nc2ccc(C(C)C)cc2)N1 (stereo not shown) [RI_46],74.4 % of control,70.2 % of control
CC1=C(C(=O)Nc2ccccc2)C(c2cccs2)C(C#N)=C(SCC(=O)Nc2ccc(C(C)C)cc2)N1 (stereo not shown) [RI_47],30.5 % of control,28.1 % of control
CC1=C(C(=O)Nc2ccccc2)C(c2ccsc2)C(C#N)=C(SCC(=O)Nc2ccccc2C)N1 (stereo not shown) [RI_48],86.5 % of control,100 % of control
CC1=C(C(=O)Nc2ccccc2)C(c2ccsc2)C(C#N)=C(SCC(=O)Nc2ccc(C)cc2)N1 (stereo not shown) [RI_49],40.9 % of control,37.7 % of control
CC1=C(C(=O)Nc2ccccc2)C(c2cccs2)C(C#N)=C(SCC(=O)Nc2ccc(C)cc2)N1 (stereo not shown) [RI_50],55.2 % of control,38.2 % of control
COc1cccc(NC(=O)CSC2=C(C#N)C(c3ccsc3)C(C(=O)Nc3ccccc3)=C(C)N2)c1 (stereo not shown) [RI_51],53.5 % of control,58 % of control
CCCc1ccc(NC(=O)CSC2=C(C#N)C(c3ccsc3)C(C(=O)Nc3ccccc3)=C(C)N2)cc1 (stereo not shown) [RI_52],50.3 % of control,61.6 % of control
CC1=C(C(=O)Nc2ccc(Cl)cc2)C(c2ccsc2)C(C#N)=C(SCC(=O)Nc2cccc(Cl)c2C)N1 (stereo not shown) [RI_53],56 % of control,99.2 % of control
CC1=C(C(=O)Nc2ccc(Cl)cc2)C(c2ccccc2)C(C#N)=C(SCC(=O)Nc2ccc(C(C)C)cc2)N1 (stereo not shown) [RI_54],45.89 % of control,52.6 % of control
COc1cccc(NC(=O)CSC2=C(C#N)C(c3ccccc3)C(C(=O)Nc3ccc(Cl)cc3)=C(C)N2)c1 (stereo not shown) [RI_55],48.1 % of control,40.3 % of control
CC1=C(C(=O)Nc2ccccc2)C(c2cccs2)C(C#N)=C(SCC(=O)Nc2ccccc2C(C)C)N1 (stereo not shown) [RI_56],54.5 % of control,100 % of control
COc1ccccc1NC(=O)CSC1=C(C#N)C(c2ccsc2)C(C(=O)Nc2ccccc2)=C(C)N1 (stereo not shown) [RI_57],49.1 % of control,37.3 % of control
COc1ccc(NC(=O)CSC2=C(C#N)C(c3cccs3)C(C(=O)Nc3ccccc3)=C(C)N2)cc1 (stereo not shown) [RI_58],23.1 % of control,25.6 % of control

Structure (SMILES),Aβ1-40 (% of control) [1],Aβ1-42 (% of control) [2]
COc1ccc(NC(=O)CSC2=C(C#N)C(c3ccsc3)C(C(=O)Nc3ccccc3)=C(C)N2)cc1 (stereo not shown) [RI_59],27.7 % of control,30.6 % of control
CC1=C(C(=O)Nc2ccc(Cl)cc2)C(c2cccs2)C(C#N)=C(SCC(=O)Nc2ccc(C)c(Cl)c2)N1 (stereo not shown) [RI_60],59.4 % of control,71.1 % of control
CCc1ccc(NC(=O)CSC2=C(C#N)C(c3cccs3)C(C(=O)Nc3ccccc3)=C(C)N2)cc1 (stereo not shown) [RI_61],68.5 % of control,51.4 % of control
CCc1ccc(NC(=O)CSC2=C(C#N)C(c3ccsc3)C(C(=O)Nc3ccccc3)=C(C)N2)cc1 (stereo not shown) [RI_62],91.6 % of control,62.4 % of control
CC1=C(C(=O)Nc2ccccc2)C(c2cccs2)C(C#N)=C(SCC(=O)Nc2ccc(C(C)(C)C)cc2)N1 (stereo not shown) [RI_63],38.2 % of control,38.8 % of control
CC1=C(C(=O)Nc2ccccc2)C(c2ccsc2)C(C#N)=C(SCC(=O)Nc2ccc(C(C)(C)C)cc2)N1 (stereo not shown) [RI_64],34.1 % of control,41.3 % of control
CCCCc1ccc(NC(=O)CSC2=C(C#N)C(c3ccsc3)C(C(=O)Nc3ccccc3)=C(C)N2)cc1 (stereo not shown) [RI_65],51.7 % of control,38.1 % of control
CC1=C(C(=O)Nc2ccccc2)C(c2cccs2)C(C#N)=C(SCC(=O)Nc2ccccc2)N1 (stereo not shown) [RI_66],20.6 % of control,23.6 % of control
CC1=C(C(=O)Nc2ccccc2)C(c2ccsc2)C(C#N)=C(SCC(=O)Nc2ccc(C)c(Cl)c2)N1 (stereo not shown) [RI_67],42.6 % of control,51.8 % of control
CCC(C)c1ccccc1NC(=O)CSC1=C(C#N)C(c2ccsc2)C(C(=O)Nc2ccccc2)=C(C)N1 (stereo not shown) [RI_68],74.6 % of control,100 % of control
CC1=C(C(=O)Nc2ccccc2)C(c2cccs2)C(C#N)=C(SCC(=O)Nc2cccc(Cl)c2)N1 (stereo not shown) [RI_69],89.1 % of control,69.8 % of control
CC1=C(C(=O)Nc2ccccc2)C(c2ccsc2)C(C#N)=C(SCC(=O)Nc2cccc(Cl)c2)N1 (stereo not shown) [RI_70],74.1 % of control,58.2 % of control
CC1=C(C(=O)Nc2ccccc2)C(c2cccs2)C(C#N)=C(SCC(=O)Nc2ccc(Br)cc2)N1 (stereo not shown) [RI_71],34.5 % of control,25.1 % of control
CC1=C(C(=O)Nc2ccccc2)C(c2cccs2)C(C#N)=C(SCC(=O)Nc2ccc(Cl)c(C)c2)N1 (stereo not shown) [RI_72],40.2 % of control,50.9 % of control
CC1=C(C(=O)Nc2ccccc2)C(c2ccsc2)C(C#N)=C(SCC(=O)Nc2ccc(Br)cc2)N1 (stereo not shown) [RI_73],24.3 % of control,34.9 % of control
CC1=C(C(=O)Nc2ccccc2)C(c2cccs2)C(C#N)=C(SCC(=O)Nc2ccc(Cl)cc2)N1 (stereo not shown) [RI_74],31.4 % of control,41.6 % of control
